Converted amounts (≈) assume the structure as drawn.
Columns and labels:
Format in all cases: functional
Plutella xylostella [1] = test: Resistance ratio, ratio of LC50 for third-instar larvae of fufenozide-resistant Plutella xylostella (diamondback moth) to LC50 for third-instar larvae of fufenozide-susceptible Plutella xylostella
Plutella xylostella [2] = test: Insecticidal activity against third-instar larvae of fufenozide-susceptible Plutella xylostella (diamondback moth) assessed as mortality by leaf-dip bioassay method
Plutella xylostella [3] = test: Insecticidal activity against third-instar larvae of fufenozide-resistant Plutella xylostella (diamondback moth) assessed as mortality by leaf-dip bioassay method

Structure (SMILES): CCOP(=S)(OCC)Oc1nc(Cl)c(Cl)cc1Cl [CHLORPYRIFOS]
- RatioLC50 (Plutella xylostella [1]): 1.75
- LC50 (Plutella xylostella [2]): 122 µg/mL (≈ 349 µM)
- LC50 (Plutella xylostella [3]): 215 µg/mL (≈ 613 µM)

Structure (SMILES): Cc1cc(C)cc(C(=O)N(NC(=O)c2ccc3c(c2C)OC(C)C3)C(C)(C)C)c1 (centres undefined) [FUXIAN]
- RatioLC50 (Plutella xylostella [1]): 302.8
- LC50 (Plutella xylostella [2]): 2.23 µg/mL (≈ 5.65 µM)
- LC50 (Plutella xylostella [3]): 676 µg/mL (≈ 1710 µM)

Structure (SMILES): CCc1ccc(C(=O)NN(C(=O)c2cc(C)cc(C)c2)C(C)(C)C)cc1 [TEBUFENOZIDE]
- RatioLC50 (Plutella xylostella [1]): 27.9
- LC50 (Plutella xylostella [2]): 12.6 µg/mL (≈ 35.7 µM)
- LC50 (Plutella xylostella [3]): 353 µg/mL (≈ 1000 µM)

Structure (SMILES): CCOP(=S)(OCC)O/N=C(\C#N)c1ccccc1 [PHOXIM]
- RatioLC50 (Plutella xylostella [1]): 1.58
- LC50 (Plutella xylostella [2]): 102 µg/mL (≈ 341 µM)
- LC50 (Plutella xylostella [3]): 161 µg/mL (≈ 540 µM)

Structure (SMILES): CCOCn1c(-c2ccc(Cl)cc2)c(C#N)c(Br)c1C(F)(F)F [CHLORFENAPYR]
- RatioLC50 (Plutella xylostella [1]): 1.11
- LC50 (Plutella xylostella [2]): 2.96 µg/mL (≈ 7.26 µM)
- LC50 (Plutella xylostella [3]): 3.3 µg/mL (≈ 8.1 µM)

Structure (SMILES): CC(C)(C)N(NC(=O)c1ccccc1)C(=O)c1ccccc1 [RH-5849]
- RatioLC50 (Plutella xylostella [1]): 10.8
- LC50 (Plutella xylostella [2]): 10.6 µg/mL (≈ 35.8 µM)
- LC50 (Plutella xylostella [3]): 114 µg/mL (≈ 385 µM)

Structure (SMILES): CNC(=O)ON=C(C)SC [METHOMYL]
- RatioLC50 (Plutella xylostella [1]): 1.92
- LC50 (Plutella xylostella [2]): 67.4 µg/mL (≈ 416 µM)
- LC50 (Plutella xylostella [3]): 130 µg/mL (≈ 798 µM)

Structure (SMILES): O=C(NC(=O)c1c(F)cccc1F)Nc1ccc(Cl)cc1 [DIFLUBENZURON]
- RatioLC50 (Plutella xylostella [1]): 17.2
- LC50 (Plutella xylostella [2]): 19.9 µg/mL (≈ 64.1 µM)
- LC50 (Plutella xylostella [3]): 342 µg/mL (≈ 1100 µM)

Structure (SMILES): COc1cccc(C(=O)NN(C(=O)c2cc(C)cc(C)c2)C(C)(C)C)c1C [METHOXYFENOZIDE]
- RatioLC50 (Plutella xylostella [1]): 37.6
- LC50 (Plutella xylostella [2]): 7.33 µg/mL (≈ 19.9 µM)
- LC50 (Plutella xylostella [3]): 276 µg/mL (≈ 748 µM)

Structure (SMILES): CC[C@H](C)[C@H]1O[C@]2(C=C[C@@H]1C)C[C@@H]1C[C@@H](C/C=C(\C)[C@@H](O[C@H]3C[C@H](OC)[C@@H](O[C@H]4C[C@H](OC)[C@@H](O)[C@H](C)O4)[C@H](C)O3)[C@@H](C)/C=C/C=C3\CO[C@@H]4[C@H](O)C(C)=C[C@@H](C(=O)O1)[C@]34O)O2.CO[C@H]1C[C@H](O[C@H]2[C@H](C)O[C@@H](O[C@@H]3/C(C)=C/C[C@@H]4C[C@@H](C[C@]5(C=C[C@H](C)[C@@H](C(C)C)O5)O4)OC(=O)[C@@H]4C=C(C)[C@@H](O)[C@H]5OC/C(=C\C=C\[C@@H]3C)[C@]54O)C[C@@H]2OC)O[C@@H](C)[C@@H]1O [ABAMECTIN]
- RatioLC50 (Plutella xylostella [1]): 7.02
- LC50 (Plutella xylostella [2]): 1.12 µg/mL
- LC50 (Plutella xylostella [3]): 7.87 µg/mL

Structure (SMILES): O=C(NC(=O)c1c(F)cccc1F)Nc1cc(Cl)c(OC(F)(F)C(F)F)c(Cl)c1 [HEXAFLUMURON]
- RatioLC50 (Plutella xylostella [1]): 28.7
- LC50 (Plutella xylostella [2]): 9.56 µg/mL (≈ 20.7 µM)
- LC50 (Plutella xylostella [3]): 274 µg/mL (≈ 594 µM)

Structure (SMILES): CC1(C)[C@H](C=C(Cl)Cl)[C@H]1C(=O)O[C@@H](C#N)c1cccc(Oc2ccccc2)c1 [BETA-CYPERMETHRIN]
- RatioLC50 (Plutella xylostella [1]): 1.35
- LC50 (Plutella xylostella [2]): 35.2 µg/mL (≈ 84.6 µM)
- LC50 (Plutella xylostella [3]): 47.5 µg/mL (≈ 114 µM)

Structure (SMILES): CC[C@H]1CCC[C@H](O[C@H]2CC[C@H](N(C)C)[C@@H](C)O2)[C@@H](C)C(=O)C2=C[C@@H]3[C@@H](C=C(C)[C@@H]4C[C@@H](O[C@@H]5O[C@@H](C)[C@H](OC)[C@@H](OC)[C@H]5OC)C[C@@H]34)[C@@H]2CC(=O)O1.CC[C@H]1CCC[C@H](O[C@H]2CC[C@H](N(C)C)[C@@H](C)O2)[C@@H](C)C(=O)C2=C[C@@H]3[C@@H](C=C[C@@H]4C[C@@H](O[C@@H]5O[C@@H](C)[C@H](OC)[C@@H](OC)[C@H]5OC)C[C@@H]34)[C@@H]2CC(=O)O1
- RatioLC50 (Plutella xylostella [1]): 2.34
- LC50 (Plutella xylostella [2]): 0.188 µg/mL
- LC50 (Plutella xylostella [3]): 0.439 µg/mL

Source: ChEMBL document CHEMBL3044869, “Cross-resistance patterns and fitness in fufenozide-resistant diamondback moth, Plutella xylostella (Lepidoptera: Plutellidae)” (2012)
